Measurements from US20050074488A1, “Use of vitamin Ds to down regulate the renin-angiotensin-aldosterone system” (priority 2003, published 2005).

Legend:
PAI-1 = assay: Western blot of PAI-1 in primary culture of human coronary artery smooth muscle cells; assay type: cell-based
[1] = cited from earlier work
renin mRNA expression = assay: Northern blot analysis of renin mRNA expression in As4.1-hVDR cells; assay type: cell-based
Protocol: (§1) Using an in vitro system, an examination was carried out in order to determine the ability of paricalcitol to suppress renin expression. […] This inhibitory activity is confirmed by renin promoter-luciferase assays, which examine the activity of paricalcitol to suppress renin gene transcription.

24(OH)ase = assay: effect of drugs on the expression of 24(OH)ase; assay type: cell-based
Protocol: Two observations may be noted in these studies: (1) 100% inhibition of growth was never achieved even at 1 μM of any of the test compound. Confocal microscopy studies confirm that, although these drugs are potent in inducing the translocation of VDR from cytoplasm to nucleus, not all cells respond to VDRAs even after 2 h of exposure, which may explain the <100% inhibition.

renin gene promotor = assay: renin promoter-luciferase assay; assay type: cell-based; conditions: FIG. 2
Protocol: as §1

For `C=C1/C(=C\C=C2/CCC[C@]3(C)[C@@H]([C@H](C)CCCC(C)(C)O)CC[C@@H]23)C[C@@H](O)C[C@@H]1O` [calcitriol], the “potency in reducing the PAI level” value (PAI-1) was “equally potent”.
For `C[C@H](/C=C/[C@H](C)C(C)(C)O)[C@H]1CC[C@H]2/C(=C/C=C3C[C@@H](O)C[C@H](O)C3)CCC[C@]12C` [paricalcitol], the “potency in reducing the PAI level” value (PAI-1) is given as “equally potent”, the “survival benefit for CKD patients relative to calcitriol” value ([1]; CKD patients) is given as “more profound for paricalcitol over calcitriol” and the “potency in the clinical studies relative to calcitriol” value ([1]; clinical studies) is given as “less potent than calcitriol”. The “renin-inhibiting activity relative to calcitriol” value (renin mRNA expression; FIG. 1A and B) was “a bit more potent than calcitriol”, the “inhibition of renin mRNA expression” value (renin mRNA expression; Northern blot, FIG. 1) was “dose-dependently inhibits renin mRNA expression” and the “potency on stimulating the expression of 24(OH)ase relative to calcitriol” value (24(OH)ase) was “less potent than calcitriol”. The “suppressing the activity of the renin gene promotor, relative to calcitriol” value (renin gene promotor) was “as least as potent as calcitriol”.
